Data published in article PMC6430017, “Structural and chemical insights into the covalent-allosteric inhibition of the protein kinase Akt” (Chemical Science, 2019).

Assays:
[1] = molecular target: MAPKAPK2 (Homo sapiens, UniProt P49137); experiment: SelectScreen Z'LYTE kinase profiling; format: biochemical; conditions: ATP at apparent KM
Procedure: (§1) protein kinases at a compound concentration of 1 µM. Measurements were performed in duplicates
(§2) and at the particular apparent ATP KM of each individual kinase employing the activity based Z’LYTE®
(§3) kinase assay of the SelectScreen® Kinase Profiling Services (ThermoFisher Scientific).
(§4) kinases at a compound concentration of 1 µM. Measurements were performed in duplicates and at
(§5) the particular apparent ATP KM of each individual kinase employing the activity based Z’LYTE® kinase
(§6) assay of the SelectScreen® Kinase Profiling Services (ThermoFisher Scientific).

[2] = molecular target: GRK6 (Homo sapiens, UniProt P43250); experiment: SelectScreen Z'LYTE kinase profiling; format: biochemical; conditions: ATP at apparent KM
Procedure: as §1, §2, §3, §4, §5, §6

[3] = molecular target: AKT3 (PKB gamma) (Homo sapiens, UniProt Q9Y243); experiment: SelectScreen Z'LYTE kinase profiling; format: biochemical; conditions: ATP at apparent KM
Procedure: as §1, §2, §3, §4, §5, §6

[4] = tested on: KU-19-19; experiment: Cell viability assay (CellTiter-Glo); format: cell-based; conditions: Homo sapiens, 120 h; KU-19-19 (bladder), day 5; read-out: Cell viability assay EC50
Procedure: Cell Culture and Viability Assay
(§7) analysis, cells were plated on day 0 into white 384-well cell culture plates (Greiner Bio-One) using a
(§8) Multidrop reagent dispenser (Thermo) at cell numbers that ensure linear and optimal luminescent
(§9) signal intensity (AN3-CA: 800 cells/well; BT-474: 400 cells/well; Dan-G: 400 cells/well; HPAF-II: 400
(§10) cells/well). Then the cells were incubated for 24 h in a humidified atmosphere at 37 °C/5 % CO2. The
(§11) cells were treated with inhibitors in serial dilutions ranging from 30 µM down to 0.1 nM using an Echo
(§12) 520 acoustic liquid handler (Labcyte Inc.). Cell viability was analysed on day 5 using the CellTiter-Glo
(§13) assay (Promega) as per manufacturer’s instructions. Luminescence signal was recorded by an EnVision
(§14) Multilabel 2104 Plate Reader (PerkinElmer) with 500 ms integration time. All data were normalized to
(§15) the plate positive control (30 µM staurosporine) and negative control (DMSO). Finally, the data was
(§16) processed with the Quattro Software Suite using a four parameter logistic model. As a quality control,
(§17) the Z’-factor was calculated from 16 positive and negative control values. Only assay results showing
(§18) a Z’-factor ≥ 0.5 were used for further analysis. All experimental points were measured in duplicates
(§19) for each plate and were replicated in at least three times.

[5] = molecular target: T1, full-length Akt (Akt^wt) (Homo sapiens, UniProt P31749); experiment: HTRF KinEASE activity-based assay, IC50 determination; format: biochemical
Procedure: (§20) The biochemical inhibitory activity (IC50) was determined with the HTRF KinEASE assay from Cisbio as
(§21) previously described.1 All reagents for HTRF experiments were purchased from Cisbio Bioassays,
(§22) France. The measurements were analyzed using the Quattro Software Suite for IC50-determination.
(§23) Time-dependent IC50-measurements were performed as described. Briefly, IC50 values were
(§24) determined for twelve different incubation times and afterwards plotted versus accordingly. Data was
(§25) analyzed according to literature procedure.2

[6] = tested on: MCF-7; experiment: Cell viability assay (CellTiter-Glo); format: cell-based; conditions: Homo sapiens, MCF7, 120 h; MCF-7 (breast), day 5; read-out: Cell viability assay EC50
Procedure: Cell Culture and Viability Assay
as §7, §8, §9, §10, §11, §12, §13, §14, §15, §16, §17, §18, §19

[7] = tested on: BT-474; experiment: Cell viability assay (CellTiter-Glo); format: cell-based; conditions: Homo sapiens, 120 h; BT-474 (breast), day 5; read-out: Cell viability assay EC50
Procedure: Cell Culture and Viability Assay
as §7, §8, §9, §10, §11, §12, §13, §14, §15, §16, §17, §18, §19

[8] = molecular target: T2, Akt1 (Homo sapiens, UniProt P31749); experiment: Intact protein mass spectrometry, covalent labeling; format: binding; conditions: 10 µM protein, 100 µM inhibitor, 1 h, denaturing conditions
T2 construct: Purified full-length wtAkt1 was incubated with a 2-fold molar excess
Procedure: In order to provide an orthogonal proof for covalent bond formation, we co-incubated the covalent-allosteric inhibitors with the protein Akt1 and analyzed the samples by mass spectrometry (Fig. 2).
Mass spectra were recorded using denaturing conditions.
We used Akt1 for MS experiments and incubated 10 µM of the protein with 100 µM of the inhibitor in
a buffer for 1 h. We analyzed the samples by mass spectrometry using a Thermo Fisher Scientific
Ultimate 3000 HPLC system connected with a Thermo Fisher Scientific Velos Pro (2D ion trap).
A mass range of 700-2000 m/z was scanned
and raw data were deconvoluted and analyzed with ProMass.

[9] = tested on: ZR-75-1; experiment: Cell viability assay (CellTiter-Glo); format: cell-based
Procedure: Cell Culture and Viability Assay
as §7, §8, §9, §10, §11, §12, §13, §14, §15, §16, §17, §18, §19

[10] = molecular target: AKT1 (PKB alpha) (Homo sapiens, UniProt P31749); experiment: SelectScreen Z'LYTE kinase profiling; format: biochemical; conditions: ATP at apparent KM
Procedure: as §1, §2, §3, §4, §5, §6

[11] = tested on: T47D; experiment: Cell viability assay (CellTiter-Glo); format: cell-based; conditions: Homo sapiens, 120 h; T47D (breast), day 5; read-out: Cell viability assay EC50
Procedure: Cell Culture and Viability Assay
as §7, §8, §9, §10, §11, §12, §13, §14, §15, §16, §17, §18, §19

[12] = tested on: AN3CA; experiment: Cell viability assay (CellTiter-Glo); format: cell-based; conditions: Homo sapiens, AN3-CA, 120 h; AN3CA (endometrium), day 5; read-out: Cell viability assay EC50
Procedure: Cell Culture and Viability Assay
as §7, §8, §9, §10, §11, §12, §13, §14, §15, §16, §17, §18, §19

[13] = human, 3 µM
Procedure: For this purpose, we used a microsomal stability assay that is a good predictor for phase I metabolic stability.[50]
Phase I metabolic stability assay
Metabolic stability under oxidative conditions was determined by LCMS-based measuring of
degradation of compounds at 3 µM in human and murine liver microsomes over 60 minutes at 37 °C
Calculating the compound half-life t1/2, the in vitro intrinsic clearance CLint is

[14] = molecular target: T1, full-length Akt (Akt^wt); experiment: Kinetic characterization by time-dependent IC50 measurements; format: biochemical; conditions: from time-dependent IC50
Procedure: as §20, §21, §22, §23, §24, §25

T1 sequence (P31749 whole entry): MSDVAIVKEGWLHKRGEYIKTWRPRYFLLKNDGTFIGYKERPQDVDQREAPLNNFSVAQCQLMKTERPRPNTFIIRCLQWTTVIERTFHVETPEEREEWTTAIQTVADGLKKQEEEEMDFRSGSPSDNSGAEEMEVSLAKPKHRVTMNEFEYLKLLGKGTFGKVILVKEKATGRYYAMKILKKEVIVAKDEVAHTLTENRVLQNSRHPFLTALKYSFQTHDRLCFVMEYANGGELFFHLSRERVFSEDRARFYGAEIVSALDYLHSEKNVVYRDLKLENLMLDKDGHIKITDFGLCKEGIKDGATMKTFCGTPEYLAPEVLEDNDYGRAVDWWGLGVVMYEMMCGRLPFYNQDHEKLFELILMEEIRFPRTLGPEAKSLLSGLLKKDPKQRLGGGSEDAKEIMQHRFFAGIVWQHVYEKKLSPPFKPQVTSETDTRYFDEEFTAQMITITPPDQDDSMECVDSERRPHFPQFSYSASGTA
MAPKAPK2, sequence (P49137 whole entry): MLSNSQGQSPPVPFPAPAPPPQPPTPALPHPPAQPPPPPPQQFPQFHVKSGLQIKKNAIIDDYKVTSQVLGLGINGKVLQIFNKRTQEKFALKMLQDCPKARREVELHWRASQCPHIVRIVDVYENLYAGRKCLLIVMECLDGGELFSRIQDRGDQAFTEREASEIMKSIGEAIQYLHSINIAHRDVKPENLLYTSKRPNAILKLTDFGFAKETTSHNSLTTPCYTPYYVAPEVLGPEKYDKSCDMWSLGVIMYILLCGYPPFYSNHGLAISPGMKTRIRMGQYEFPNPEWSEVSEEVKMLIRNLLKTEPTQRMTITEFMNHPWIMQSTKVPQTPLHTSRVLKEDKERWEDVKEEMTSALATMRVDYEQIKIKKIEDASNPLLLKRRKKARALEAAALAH
GRK6, sequence (P43250 whole entry): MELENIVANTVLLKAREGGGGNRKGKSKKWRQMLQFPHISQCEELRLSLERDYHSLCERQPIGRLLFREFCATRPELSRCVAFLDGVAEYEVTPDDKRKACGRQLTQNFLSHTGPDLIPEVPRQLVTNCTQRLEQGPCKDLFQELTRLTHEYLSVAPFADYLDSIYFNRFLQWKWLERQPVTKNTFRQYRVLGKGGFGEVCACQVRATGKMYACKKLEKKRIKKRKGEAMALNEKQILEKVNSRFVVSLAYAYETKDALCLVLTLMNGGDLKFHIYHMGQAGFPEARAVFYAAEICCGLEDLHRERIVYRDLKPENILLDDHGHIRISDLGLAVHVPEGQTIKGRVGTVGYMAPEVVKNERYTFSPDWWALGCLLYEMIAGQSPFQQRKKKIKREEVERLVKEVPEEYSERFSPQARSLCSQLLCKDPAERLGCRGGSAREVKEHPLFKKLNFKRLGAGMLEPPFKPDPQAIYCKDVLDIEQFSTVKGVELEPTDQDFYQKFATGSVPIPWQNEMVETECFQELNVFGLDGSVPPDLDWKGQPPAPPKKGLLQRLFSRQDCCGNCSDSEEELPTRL
T2 sequence (P31749 whole entry): as the sequence (P31749 whole entry) above
AKT1 (PKB alpha), sequence (P31749 whole entry): as above
AKT3 (PKB gamma), sequence (Q9Y243 whole entry): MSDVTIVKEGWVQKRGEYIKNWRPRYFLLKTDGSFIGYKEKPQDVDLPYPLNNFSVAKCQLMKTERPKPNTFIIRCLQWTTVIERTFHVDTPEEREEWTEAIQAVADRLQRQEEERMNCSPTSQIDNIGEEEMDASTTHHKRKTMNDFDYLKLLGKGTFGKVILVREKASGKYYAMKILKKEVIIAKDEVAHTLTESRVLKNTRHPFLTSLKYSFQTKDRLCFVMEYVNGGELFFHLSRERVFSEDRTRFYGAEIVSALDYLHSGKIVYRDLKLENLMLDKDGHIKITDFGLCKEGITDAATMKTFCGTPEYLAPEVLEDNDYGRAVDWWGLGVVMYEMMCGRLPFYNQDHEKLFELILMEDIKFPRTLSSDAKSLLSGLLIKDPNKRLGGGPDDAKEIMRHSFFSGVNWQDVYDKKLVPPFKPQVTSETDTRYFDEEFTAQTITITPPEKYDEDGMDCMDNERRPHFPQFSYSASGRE

Structure (SMILES)	inhibition at 1 µM [1]	inhibition at 1 µM [2]	inhibition at 1 µM [3]	EC50 [4]	fold loss in inhibitory activity (IC50) compared to 1 [5]	IC50 ([5]; HTRF KinEASE)	EC50 [6]	EC50 [7]	labeling of Akt1 by mass spectrometry [8]	EC50 ([9]; Homo sapiens, 120 h, ZR-75-1 (breast), day 5, read-out: Cell viability assay EC50)	fold higher inhibitory activity than borussertib ([9]; ZR-75-1 EC50)	inhibition at 1 µM [10]	EC50 [11]	EC50 [12]	fold lower stability in microsomes [13]	Ki [14]	kinact [14]	kinact/KI [14]
C=CC(=O)Nc1cc(NC(=O)NC2CCN(Cc3ccc(-c4nc5cc[nH]c(=O)c5cc4-c4ccccc4)cc3)CC2)ccc1Cl [compound 27]	33%	–	–	–	–	–	–	–	–	–	–	–	–	–	–	–	–	–
C=CC(=O)Nc1cccc(C(=O)NC2CCN(Cc3ccc(-c4nc5cc[nH]c(=O)c5cc4-c4ccccc4)cc3)CC2)c1 [30b]	31%	3%	–	–	–	–	–	–	–	–	–	–	–	–	–	–	–	–
C=CC(=O)Nc1ccc2c(c1)n(C1CCN(Cc3ccc(-c4nc5cc[nH]c(=O)c5cc4-c4ccccc4)cc3)CC1)c(=O)n2C [24b]	29%	0%	75%	7160 ± 2110 nM	3 fold	3 ± 0.3 nM	32 ± 8 nM	109 ± 16 nM	complete labeling	2 nM	2 fold	98%	11 ± 2 nM	230 ± 75 nM	4 fold	10.7 ± 0.5 nM	0.00202 s⁻¹	190000 ± 25000 M⁻¹ s⁻¹
